Measurements as given in patent US8927659B2, “Resorbable phenolic polymers” (TYRX, Inc., priority 2005, dated 2015).
Converted amounts (≈) assume the structure as drawn.

Experiment: Water solubility of monomer building blocks (Tables 1 and 2)
Format: physicochemical
Settings: for solubility: water

solubility (Table 2, unit inferred)	SMILES	also measured
–	NC(C(=O)O)c1ccc(O)cc1 (centres unmarked) [Hydroxyphenyl glycine]	solubility: 5000 µg/mL (≈ 29.9 mM)
–	O=C(O)COCC(=O)O [Diglycolic acid]	Water Solubility (Table 2, unit not given): Water soluble
8000 µg/mL (≈ 57.9 mM)	O=C(O)c1ccc(O)cc1 [4-hydroxy benzoic acid]	–
1630 µg/mL (≈ 9.81 mM)	O=C(O)CCc1ccc(O)cc1 [DAT]	–

SMILES	solubility (Table 2, unit inferred)	also measured
O=C(O)CCCC(=O)O [Glutaric acid]	640000 µg/mL (≈ 4840 mM)	–
